Counter-ions that a name gives are not always drawn. Like-named read-outs stand apart in the source and are kept apart here.
Assays:
Type in all cases: biochemical
MMP-1 = molecular target: T1, MMP-1 (Homo sapiens, UniProt P03956); assay: MMP-1 inhibition (in vitro Ki)
T1 construct: made in house; host or cells: MMP-1-transfected HT-1080 cells (spent media)
T1 sequence (P03956 100-469): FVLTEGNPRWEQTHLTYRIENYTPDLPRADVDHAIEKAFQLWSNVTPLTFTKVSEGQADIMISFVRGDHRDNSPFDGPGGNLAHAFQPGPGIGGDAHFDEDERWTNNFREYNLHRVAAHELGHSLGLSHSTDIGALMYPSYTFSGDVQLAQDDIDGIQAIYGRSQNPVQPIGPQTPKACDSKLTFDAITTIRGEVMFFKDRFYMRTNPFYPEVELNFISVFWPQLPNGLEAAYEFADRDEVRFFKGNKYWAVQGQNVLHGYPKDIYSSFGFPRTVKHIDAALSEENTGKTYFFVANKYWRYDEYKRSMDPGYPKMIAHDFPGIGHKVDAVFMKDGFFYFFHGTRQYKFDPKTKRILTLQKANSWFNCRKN

MMP-2 = molecular target: T2, MMP-2 (Homo sapiens, UniProt P08253); assay: MMP-2 inhibition (in vitro Ki)
T2 construct: made in house; host or cells: MMP-2-transfected p2AHT2 cells
T2 sequence (P08253 110-660): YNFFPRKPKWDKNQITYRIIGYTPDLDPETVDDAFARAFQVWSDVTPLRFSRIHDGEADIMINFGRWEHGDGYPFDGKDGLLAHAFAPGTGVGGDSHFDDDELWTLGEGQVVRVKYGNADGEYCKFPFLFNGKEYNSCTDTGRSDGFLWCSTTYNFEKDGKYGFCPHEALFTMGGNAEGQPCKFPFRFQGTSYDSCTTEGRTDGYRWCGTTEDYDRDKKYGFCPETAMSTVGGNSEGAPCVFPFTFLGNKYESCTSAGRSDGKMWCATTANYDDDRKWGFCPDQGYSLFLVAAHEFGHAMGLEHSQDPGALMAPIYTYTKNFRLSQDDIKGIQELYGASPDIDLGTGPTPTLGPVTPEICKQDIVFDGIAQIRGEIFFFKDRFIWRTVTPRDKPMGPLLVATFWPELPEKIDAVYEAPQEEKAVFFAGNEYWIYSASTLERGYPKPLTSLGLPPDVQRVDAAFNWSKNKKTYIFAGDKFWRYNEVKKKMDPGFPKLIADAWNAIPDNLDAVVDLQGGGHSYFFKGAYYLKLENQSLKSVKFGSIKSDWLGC

MMP-9 = molecular target: T3, MMP-9 (Homo sapiens, UniProt P14780); assay: MMP-9 inhibition (in vitro Ki)
T3 construct: made in house; host or cells: MMP-9-transfected HT1080 cells (spent media)
T3 sequence (P14780 107-707 limits assumed): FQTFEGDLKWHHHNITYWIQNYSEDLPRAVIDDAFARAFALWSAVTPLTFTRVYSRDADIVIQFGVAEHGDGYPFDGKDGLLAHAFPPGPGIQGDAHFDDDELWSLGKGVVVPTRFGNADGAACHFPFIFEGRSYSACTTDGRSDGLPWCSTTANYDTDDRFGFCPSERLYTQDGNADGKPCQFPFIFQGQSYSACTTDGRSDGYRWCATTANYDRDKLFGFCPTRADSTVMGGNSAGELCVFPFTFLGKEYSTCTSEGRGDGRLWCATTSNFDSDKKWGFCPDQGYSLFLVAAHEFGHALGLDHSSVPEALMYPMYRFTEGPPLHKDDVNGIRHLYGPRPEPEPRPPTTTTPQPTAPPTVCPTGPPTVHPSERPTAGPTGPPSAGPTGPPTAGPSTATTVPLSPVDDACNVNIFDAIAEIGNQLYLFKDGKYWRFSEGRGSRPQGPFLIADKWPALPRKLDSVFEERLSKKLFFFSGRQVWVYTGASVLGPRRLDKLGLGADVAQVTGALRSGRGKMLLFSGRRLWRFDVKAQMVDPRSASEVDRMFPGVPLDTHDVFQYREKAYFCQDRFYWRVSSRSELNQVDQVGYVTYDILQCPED

MMP-13 = molecular target: T4, MMP-13 (Homo sapiens, UniProt P45452); assay: MMP-13 inhibition (in vitro Ki)
T4 construct: made in house; host or cells: baculovirus / insect cells

MMP-14 = molecular target: T5, MMP-14 (Homo sapiens, UniProt P50281); assay: MMP-14 inhibition (in vitro Ki)
T5 construct: The catalytic domain enzyme was expressed in E. coli inclusion bodies, solubilized in urea; made in house

[1] = Table 9, read-out: MMP-1 Ki (IC-50)
[2] = Table 9, read-out: MMP-2 Ki (IC-50)
[3] = Table 9, read-out: MMP-9 Ki (IC-50)
[4] = Table 9, read-out: MMP-13 Ki (IC-50)
[5] = Table 9, read-out: MMP-14 Ki (IC-50)

## O=C(CCCCC1CCN(S(=O)(=O)C2(C(=O)NO)CCOCC2)CC1)Nc1ccc(OC(F)(F)F)cc1 [Example A89]
MMP-1; [1]
  Ki: 1030 nM
MMP-2; [2]
  Ki: 29.3 nM
MMP-9; [3]
  Ki: 471 nM
MMP-13; [4]
  Ki: 0.66 nM
MMP-14; [5]
  Ki: 8570 nM

## O=C(NO)C1(S(=O)(=O)N2CCC(c3ccc(OCC(F)(F)C(F)F)cn3)CC2)CCOCC1 [Example A59, N-hydroxy-4-({4-[5-(2,2,3,3-tetrafluoropropoxy)pyridin-2-yl]piperidin-1-yl}sulfonyl)tetrahydro-2H-pyran-4-carboxamide Hydrochloride]
MMP-1; Table 8, read-out: MMP-1 Ki
  Ki: 1660 nM
MMP-2; Table 8, read-out: MMP-2 Ki
  Ki: 0.76 nM
MMP-9; Table 8, read-out: MMP-9 Ki
  Ki: 1.54 nM
MMP-13; Table 8, read-out: MMP-13 Ki
  Ki: 0.62 nM
MMP-14; Table 8, read-out: MMP-14 Ki
  Ki: 5150 nM

## O=C(NO)C1(S(=O)(=O)N2CCC(c3cnc(CCC4CC4)cn3)CC2)CCOCC1 [Example A110]
MMP-1; [1]
  Ki: > 10000 nM
MMP-2; [2]
  Ki: 7.78 nM
MMP-9; [3]
  Ki: 1.03 nM
MMP-13; [4]
  Ki: 4.4 nM
MMP-14; [5]
  Ki: 9210 nM

## O=C(NO)C1(S(=O)(=O)N2CCC(CCCCOCCCC(F)(F)F)CC2)CCOCC1 [Example A40, 4-{4-[4-(4,4,4-trifluoro-butoxy)-butyl]-piperidine-1-sulfonyl}-tetrahydro-pyran-4-carboxylic Acid Hydroxyamide]
MMP-1; Table 8, read-out: MMP-1 Ki
  Ki: 4260 nM
MMP-2; Table 8, read-out: MMP-2 Ki
  Ki: 6.99 nM
MMP-9; Table 8, read-out: MMP-9 Ki
  Ki: 46.4 nM
MMP-13; Table 8, read-out: MMP-13 Ki
  Ki: 0.6 nM
MMP-14; Table 8, read-out: MMP-14 Ki
  Ki: 3420 nM

## O=C(CCCCC1CCN(S(=O)(=O)C2(C(=O)NO)CCOCC2)CC1)N1Cc2ccccc2C1 [Example A87]
MMP-1; [1]
  Ki: 927 nM
MMP-2; [2]
  Ki: 17.2 nM
MMP-9; [3]
  Ki: 107 nM
MMP-13; [4]
  Ki: 0.01 nM
MMP-14; [5]
  Ki: > 10000 nM

## O=C(/C=C/C=C/C1CCN(S(=O)(=O)C2(C(=O)NO)CCOCC2)CC1)N1CCCCC1 [Example A78]
MMP-1; [1]
  Ki: 2420 nM
MMP-2; [2]
  Ki: 172 nM
MMP-9; [3]
  Ki: 428 nM
MMP-13; [4]
  Ki: 0.52 nM
MMP-14; [5]
  Ki: > 10000 nM

## CCc1nc(-c2ccc(N3CCN(S(=O)(=O)C4(C(=O)NO)CCOCC4)CC3)cc2)no1 [Example A176]
MMP-1; [1]
  Ki: 1710 nM
MMP-2; [2]
  Ki: 0.08 nM
MMP-9; [3]
  Ki: 0.81 nM
MMP-13; [4]
  Ki: 0.15 nM
MMP-14; [5]
  Ki: 184 nM

## CC(C)(C)CCOC1CCN(S(=O)(=O)C2(C(=O)NO)CCOCC2)CC1 [Example A36E]
MMP-1; Table 8, read-out: MMP-1 Ki
  Ki: > 10000 nM
MMP-2; Table 8, read-out: MMP-2 Ki
  Ki: 112 nM
MMP-9; Table 8, read-out: MMP-9 Ki
  Ki: 365 nM
MMP-13; Table 8, read-out: MMP-13 Ki
  Ki: 65.8 nM
MMP-14; Table 8, read-out: MMP-14 Ki
  Ki: 4250 nM

## CCCCC#Cc1ccc(C2CCN(S(=O)(=O)C3(C(=O)NO)CCOCC3)CC2)nc1 [Example A137]
MMP-1; [1]
  Ki: 1260 nM
MMP-2; [2]
  Ki: 0.37 nM
MMP-9; [3]
  Ki: 0.32 nM
MMP-13; [4]
  Ki: 0.09 nM
MMP-14; [5]
  Ki: 221 nM

## O=C(NO)C1(S(=O)(=O)N2CCC(c3ccc(CCC(F)(F)C(F)(F)F)cn3)CC2)CCN(c2cccnc2)CC1 [Example A165]
MMP-1; [1]
  Ki: > 10000 nM
MMP-2; [2]
  Ki: 1.67 nM
MMP-9; [3]
  Ki: 0.979 nM
MMP-13; [4]
  Ki: 0.647 nM
MMP-14; [5]
  Ki: 7210 nM

## CC(F)(F)CCc1ccc(C2CCN(S(=O)(=O)C3(C(=O)NO)CCOCC3)CC2)nc1 [Example A63, 4-({4-[5-(3,3-difluorobutyl)pyridin-2-yl]piperidin-1-yl}sulfonyl)-N-hydroxytetrahydro-2H-pyran-4-carboxamide Hydrochloride]
MMP-1; Table 8, read-out: MMP-1 Ki
  Ki: 4370 nM
MMP-2; Table 8, read-out: MMP-2 Ki
  Ki: 0.5 nM
MMP-9; Table 8, read-out: MMP-9 Ki
  Ki: 0.22 nM
MMP-13; Table 8, read-out: MMP-13 Ki
  Ki: 0.39 nM
MMP-14; Table 8, read-out: MMP-14 Ki
  Ki: 1840 nM

## O=C(NO)C1(S(=O)(=O)N2CCC(c3ccc(OCC(F)(F)F)cn3)CC2)CCOCC1 [Example A57, N-hydroxy-4-({4-[5-(2,2,2-trifluoroethoxy)pyridin-2-yl]piperidin-1-yl}sulfonyl)tetrahydro-2H-pyran-4-carboxamide Hydrochloride]
MMP-1; Table 8, read-out: MMP-1 Ki
  Ki: 1570 nM
MMP-2; Table 8, read-out: MMP-2 Ki
  Ki: 0.53 nM
MMP-9; Table 8, read-out: MMP-9 Ki
  Ki: 0.48 nM
MMP-13; Table 8, read-out: MMP-13 Ki
  Ki: 0.34 nM
MMP-14; Table 8, read-out: MMP-14 Ki
  Ki: 2020 nM

## O=C(NO)C1(S(=O)(=O)N2CCC(c3cnc(OCCC4CC4)cn3)CC2)CCOCC1 [Example A67, 4-({4-[5-(2-cyclopropylethoxy)pyrazin-2-yl]piperidin-1-yl}sulfonyl)-N-hydroxytetrahydro-2H-pyran-4-carboxamide]
MMP-1; Table 8, read-out: MMP-1 Ki
  Ki: 4450 nM
MMP-2; Table 8, read-out: MMP-2 Ki
  Ki: 0.66 nM
MMP-9; Table 8, read-out: MMP-9 Ki
  Ki: 0.07 nM
MMP-13; Table 8, read-out: MMP-13 Ki
  Ki: 0.22 nM
MMP-14; Table 8, read-out: MMP-14 Ki
  Ki: 1350 nM

## CNC(=O)CCCCC1CCN(S(=O)(=O)C2(C(=O)NO)CCOCC2)CC1 [Example A86]
MMP-1; [1]
  Ki: 516 nM
MMP-2; [2]
  Ki: 23.8 nM
MMP-9; [3]
  Ki: 307 nM
MMP-13; [4]
  Ki: 8.19 nM
MMP-14; [5]
  Ki: 7540 nM
